Here are results for 14 compounds from ChEMBL document CHEMBL1155996, “Improving potency and selectivity of a new class of non-Zn-chelating MMP-13 inhibitors” (Bioorg Med Chem Lett, 2009).

Data set [1] is described as follows: Solubility of compound at pH 4.5 by high throughput screening. As to conditions: buffer. It is filed as physicochemical.
A short description of data set [2]: Solubility of compound at pH 7.4 by high throughput screening. As to conditions: buffer. In kind it is physicochemical.
A further data set has as its target Collagenase 3 (Homo sapiens, UniProt P45452). The experiment in a line: Inhibition of human MMP13 by FRET assay.

Converted amounts (≈) assume the structure as drawn.

In the case of `CCOc1ccc(-c2ccc(C(=O)N[C@H](C(=O)NC)C3CCCCC3)o2)nc1`, the solubility (as a rule, how much of the substance goes into solution per volume) was 33 µg/mL (≈ 85.6 µM) in data set [1] and greater than 49 µg/mL in data set [2].
The matching figures for `CNC(=O)[C@@H](NC(=O)c1ccc(-c2ccc(Cl)cc2)o1)C1CCCCC1`: 1.5 µg/mL (≈ 4 µM) and 1.9 µg/mL (≈ 5.07 µM).
The matching figures for `CNC(=O)[C@@H](NC(=O)c1ccc(-c2ccc(S(=O)(=O)NC)cc2)o1)C1CCCCC1`: 50 µg/mL (≈ 115 µM) and 52 µg/mL (≈ 120 µM).
The matching figures for `CNC(=O)[C@@H](NC(=O)c1ccc(-c2ccc(Cl)cn2)o1)C1CCCCC1`: 35 µg/mL (≈ 93.1 µM) and 37 µg/mL (≈ 98.4 µM).
Consider `CNC(=O)c1ccc(-c2ccc(C(=O)N[C@H](C(=O)NC)C3CCCCC3)o2)cc1`, for which 6 µM corresponded to half-maximal inhibition at Collagenase 3 (IC50). The solubility in data set [1] was found to be 16 µg/mL (≈ 40.3 µM); in data set [2], 17 µg/mL (≈ 42.8 µM).
Regarding `CNC(=O)[C@@H](NC(=O)c1ccc(-c2ccc(OCc3cc(C)n(C)n3)cn2)o1)C1CCCCC1`, the solubility in data set [1] and in data set [2] was greater than 57 µg/mL throughout.
On to `CNC(=O)[C@@H](NC(=O)c1ccc(-c2ccc(OCc3cc4ccccc4o3)cn2)o1)C1CCCCC1`, for which the solubility in data set [1] is less than 0.1 µg/mL; in data set [2], 0.1 µg/mL (≈ 0.205 µM).
Regarding `CNC(=O)[C@@H](NC(=O)c1ccc(-c2ccc(Oc3ccccc3)cc2)o1)C1CCCCC1`, the IC50 – broadly, the concentration that inhibits the measured activity by half – at Collagenase 3 is greater than 50 µM.
With `CNC(=O)[C@@H](NC(=O)c1ccc(-c2ccc(NC(C)=O)cc2)o1)C1CCCCC1`, 1.55 µM corresponded to half-maximal inhibition at Collagenase 3 (IC50). In addition, the solubility in data set [1] stood at 15 µg/mL (≈ 37.7 µM); in data set [2] it was 17 µg/mL (≈ 42.8 µM).
Regarding `CNC(=O)[C@@H](NC(=O)c1ccc(-c2ccc(OCc3ccn[nH]3)cn2)o1)C1CCCCC1`, the solubility turned out to be 39 µg/mL (≈ 89.1 µM) in data set [1] and 43 µg/mL (≈ 98.3 µM) in data set [2].
The matching figures for `CNC(=O)[C@@H](NC(=O)c1ccc(-c2ccc(OC)cc2)o1)C1CCCCC1`: 1.4 µg/mL (≈ 3.78 µM) and 1.6 µg/mL (≈ 4.32 µM).
Taken in the same sequence, the figures for `CNC(=O)[C@@H](NC(=O)c1ccc(-c2ccc(OCc3cccc(C)n3)cn2)o1)C1CCCCC1` were 7.4 µg/mL (≈ 16 µM) and 3.4 µg/mL (≈ 7.35 µM).
Taken in the same sequence, the figures for `CNC(=O)[C@@H](NC(=O)c1ccc(-c2ccc(NS(C)(=O)=O)cc2)o1)C1CCCCC1` were 53 µg/mL (≈ 122 µM) and 61 µg/mL (≈ 141 µM).
Consider `CNC(=O)[C@@H](NC(=O)c1ccc(-c2ccc(OCc3cc(C)n[nH]3)cn2)o1)C1CCCCC1`, for which the solubility in data set [1] worked out at 25 µg/mL (≈ 55.4 µM); in data set [2] it was 31 µg/mL (≈ 68.7 µM).
